Experimental data taken from publication PMC10133546, “Simultaneous determination of multiple components in rat plasma by UHPLC-sMRM for pharmacokinetic studies after oral administration of Qingjin Yiqi Granules” (Frontiers in Pharmacology, 2023).

Key:
[1] = Stability of the working solution (4°C for 1 month); assay type: physicochemical
Procedure: The stability of analytes in plasma was evaluated by analyzing 4 QC samples (n = 6). The stability was included auto-sampler stability (keeping the sample in auto-sampler for 24 h), three times of freeze-thaw cycles stability (freezing cycle at −80°C, thawing cycle at room temperature), room temperature stability (storing samples at room temperature for 24 h), long-term stability (storing samples at −80°C for 1 month). […] Accompanying curve was established when testing the sample, calculate and compare the ratio of the actual measured concentration to the theoretical concentration, expressed in accuracy and RSD.

[2] = Stability of analytes in rat plasma (auto-sampler, freeze-thaw, room temperature, long-term); settings: for Room temperature for 24 h Accuracy (%): room temperature 24 h; for Freeze thaw cycles Accuracy (%): three freeze-thaw cycles; for Autosampler for 24 h Accuracy (%): autosampler 24 h

Row | SMILES | Working solution Accuracy (%) ([1]; 12.5 ng/mL) | Working solution Accuracy (%) ([1]; 100 ng/mL) | Working solution Accuracy (%) ([1]; 500 ng/mL) | Room temperature for 24 h Accuracy (%) ([2]; 1.56 ng/mL) | Freeze thaw cycles Accuracy (%) ([2]; 1.56 ng/mL) | −80°C for 1month Accuracy (%) ([2]; 1.56 ng/mL, −80°C 1 month) | Autosampler for 24 h Accuracy (%) ([2]; 12.5 ng/mL) | Room temperature for 24 h Accuracy (%) ([2]; 12.5 ng/mL) | Freeze thaw cycles Accuracy (%) ([2]; 12.5 ng/mL) | −80°C for 1month Accuracy (%) ([2]; 12.5 ng/mL, −80°C 1 month) | Autosampler for 24 h Accuracy (%) ([2]; 100 ng/mL) | Room temperature for 24 h Accuracy (%) ([2]; 100 ng/mL) | Freeze thaw cycles Accuracy (%) ([2]; 100 ng/mL) | Autosampler for 24 h Accuracy (%) ([2]; 500 ng/mL) | Room temperature for 24 h Accuracy (%) ([2]; 500 ng/mL) | −80°C for 1month Accuracy (%) ([2]; 500 ng/mL, −80°C 1 month) | −80°C for 1month Accuracy (%) ([2]; 100 ng/mL, −80°C 1 month) | Freeze thaw cycles Accuracy (%) ([2]; 500 ng/mL) | Autosampler for 24 h Accuracy (%) ([2]; 50 ng/mL) | −80°C for 1month Accuracy (%) ([2]; 50 ng/mL, −80°C 1 month) | also measured
1 | COc1ccc(-c2coc3cc(O[C@@H]4O[C@H](CO)[C@@H](O)[C@H](O)[C@H]4O)ccc3c2=O)cc1 [ononin] | 87.5 | 104.0 | 91.3 | 98.6 | 95.6 | 111.0 | 95.3 | 109.0 | 108.0 | 92.2 | 94.4 | 86.9 | 99.0 | 104.0 | 93.2 | 98.2 |  |  |  |  | Working solution Accuracy (%) ([1]; 1.56 ng/mL): 84.3%
2 | O=c1cc(-c2ccc(O)cc2)oc2c([C@@H]3O[C@H](CO)[C@@H](O)[C@H](O)[C@H]3O)c(O)cc(O)c12 [vitexin] | 88.3 | 89.9 | 106.0 | 92.0 | 103.0 | 90.4 | 93.5 | 105.0 | 92.0 | 106.0 | 93.2 | 88.3 | 85.5 | 92.4 | 107.0 | 92.6 | 93.2 | 108.0 |  |  | Working solution Accuracy (%) ([1]; 1.56 ng/mL): 95.6%; Autosampler for 24 h Accuracy (%) ([2]; 1.56 ng/mL): 95.0%
3 | CC(C)=CCC[C@](C)(O)[C@H]1CC[C@]2(C)[C@@H]1[C@H](O)C[C@@H]1[C@@]3(C)CC[C@H](O)C(C)(C)[C@@H]3[C@@H](O[C@@H]3O[C@H](CO)[C@@H](O)[C@H](O)[C@H]3O)C[C@]12C [ginsenoside Rh1] |  | 95.1 |  |  |  |  |  |  |  |  | 90.8 | 96.5 | 100.0 |  |  |  | 93.5 |  | 86.5 | 107.0 | Working solution Accuracy (%) ([1]; 50 ng/mL): 106.0%; Room temperature for 24 h Accuracy (%) ([2]; 50 ng/mL): 100.0%; Autosampler for 24 h Accuracy (%) ([2]; concentration 200 ng/mL): 96.5%; Autosampler for 24 h Accuracy (%) ([2]; concentration 500 ng/mL): 108.0%; Room temperature for 24 h Accuracy (%) ([2]; concentration 500 ng/mL): 98.7%; Freeze thaw cycles Accuracy (%) ([2]; concentration 500 ng/mL): 94.1%; −80°C for 1month Accuracy (%) ([2]; −80°C for 1 month, concentration 500 ng/mL): 114.0%
4 | O=c1c(O[C@@H]2O[C@H](CO)[C@H](O)[C@H](O)[C@H]2O)c(-c2ccc(O)c(O)c2)oc2cc(O)cc(O)c12 [hyperoside] | 92.1 | 91.2 | 95.0 | 91.6 | 97.6 | 106.0 | 101.0 |  | 98.4 | 100.0 | 90.5 | 95.4 | 93.5 | 95.8 | 99.1 |  | 88.8 | 95.3 |  |  | Autosampler for 24 h Accuracy (%) ([2]; 1.56 ng/mL): 111.0%
5 | CC(C)=CCC[C@](C)(O)[C@H]1CC[C@]2(C)[C@@H]1[C@H](O)C[C@@H]1[C@@]3(C)CC[C@H](O)C(C)(C)[C@@H]3[C@@H](O[C@@H]3O[C@H](CO)[C@@H](O)[C@H](O)[C@H]3O[C@@H]3O[C@H](CO)[C@@H](O)[C@H](O)[C@H]3O)C[C@]12C [ginsenoside Rf] | 91.9 | 110.0 | 102.0 |  |  |  | 112.0 | 96.1 | 97.2 | 97.1 | 88.2 | 96.8 | 89.7 |  | 113.0 | 112.0 |  |  | 98.9 | 89.6 | Working solution Accuracy (%) ([1]; 50 ng/mL): 94.9%; Freeze thaw cycles Accuracy (%) ([2]; 50 ng/mL): 88.0%
6 | C[C@@]12C[C@@]3(O)O[C@@H](O1)[C@]1(COC(=O)c4ccccc4)[C@H]3C[C@@]12O[C@@H]1O[C@H](CO)[C@@H](O)[C@H](O)[C@H]1O [paeoniflorin] | 106.0 |  | 93.2 |  |  |  | 86.8 | 106.0 | 97.6 | 97.6 | 111.0 | 86.8 | 93.4 | 92.0 | 92.2 | 95.3 | 95.2 | 93.1 | 97.6 | 96.4 | Room temperature for 24 h Accuracy (%) ([2]; 50 ng/mL): 106.0%; Freeze thaw cycles Accuracy (%) ([2]; 50 ng/mL): 94.1%
7 | O=C(/C=C/c1ccc(O[C@@H]2O[C@H](CO)[C@@H](O)[C@H](O)[C@H]2O)cc1)c1ccc(O)cc1O [isoliquiritin] | 110.0 |  | 93.3 | 88.9 | 95.5 | 83.8 | 108.0 | 87.5 | 90.9 |  | 107.0 | 96.6 | 94.5 | 96.3 | 96.7 | 95.0 | 106.0 | 91.6 |  |  | Working solution Accuracy (%) ([1]; 1.56 ng/mL): 106.0%; Autosampler for 24 h Accuracy (%) ([2]; 1.56 ng/mL): 99.3%
8 | O.Oc1cc(O)c2c(c1)O[C@H](c1ccc(O)c(O)c1)[C@@H](O)C2 [catechin] | 91.6 | 97.4 | 100.0 |  |  |  |  |  |  |  |  |  |  |  |  |  |  |  |  |  | Working solution Accuracy (%) ([1]; 50 ng/mL): 106.0%
9 | COc1c2ccoc2c(OC)c2oc(=O)ccc12 [isopimpinellin (IS)] |  |  |  |  |  |  |  |  |  |  |  |  |  |  |  |  |  |  |  |  | Working solution Accuracy (%) ([1]; concentration 100 ng/mL): 93.5%; Autosampler for 24 h Accuracy (%) ([2]; concentration 100 ng/mL): 98.6%; Room temperature for 24 h Accuracy (%) ([2]; concentration 100 ng/mL): 96.5%; Freeze thaw cycles Accuracy (%) ([2]; concentration 100 ng/mL): 88.2%; −80°C for 1month Accuracy (%) ([2]; −80°C for 1 month, concentration 100 ng/mL): 109.0%
10 | O=C(/C=C/c1ccc(O)c(O)c1)O[C@H]1[C@H](O)C[C@](O)(C(=O)O)C[C@H]1O [cryptochlorogenic acid] | 87.6 | 94.6 | 96.8 |  |  |  | 94.6 | 90.6 | 84.5 | 90.6 | 92.7 |  | 88.9 | 109.0 | 100.0 | 104.0 | 110.0 | 98.7 | 93.1 | 107.0 | Working solution Accuracy (%) ([1]; 50 ng/mL): 95.0%; Room temperature for 24 h Accuracy (%) ([2]; 50 ng/mL): 91.2%; Freeze thaw cycles Accuracy (%) ([2]; 50 ng/mL): 86.6%
11 | O=c1cc(-c2ccccc2)oc2cc(O)c(O)c(O)c12 [baicalein] |  |  |  |  |  |  | 97.0 | 91.4 | 97.4 | 99.7 | 92.4 |  | 98.2 | 93.2 | 91.0 | 104.0 | 95.5 | 94.0 | 92.3 | 90.6 | Room temperature for 24 h Accuracy (%) ([2]; 50 ng/mL): 85.5%
12 | COc1ccc(-c2oc3c(CC=C(C)C)c(O[C@@H]4O[C@H](CO)[C@@H](O)[C@H](O)[C@H]4O)cc(O)c3c(=O)c2O[C@@H]2O[C@@H](C)[C@H](O)[C@@H](O)[C@H]2O)cc1 [icariin (IS)] |  |  |  |  |  |  |  |  |  |  |  |  |  |  |  |  |  |  |  |  | Working solution Accuracy (%) ([1]; concentration 100 ng/mL): 94.8%
